Earlier results on three compounds are cited in patent US20110021553A1, “IMMUNOSUPPRESSIVE MACROLIDE POWDER FOR ORAL SUSPENSION” (priority 2008, published 2011).

For data set [1], the system named is albumin and α1-glicoprotein. The settings on record: mainly albumin and α1-glicoprotein.
Data set [2] relates to skin mast cells, basophils and eosinophils. Conditions: in vitro.
Assay in data set [3]: not given
The source holds these as a separate data set.

The conditions of data set [4]: main metabolites via CYP3A4.

`C=CC[C@@H]1/C=C(\C)C[C@H](C)C[C@H](OC)[C@H]2O[C@@](O)(C(=O)C(=O)N3CCCC[C@H]3C(=O)O[C@H](/C(C)=C/[C@@H]3CC[C@@H](O)[C@H](OC)C3)[C@H](C)[C@@H](O)CC1=O)[C@H](C)C[C@@H]2OC` (relative stereo) [Tacrolimus, [3S-[3R*[E(1S*,3S*,4S*)], 4S*,5R*,8S*,9E,12R*,14R*,15S*,16R*,18S*,19S*,26aR*]]-5,6,8,11,12,13,14,15,16,17,18,19,24,25,26,26a-hexadecahydro-5,19-dihydroxy-3-[2-(4-hidroxy-3-metoxy-cyclohexyl)-1-metyletenyl]-14,16-dimethoxy-4,10,12,18-tetramethyl-8-(2-propenyl)-15,19-epoxy-3H-pyrido [2,1-c] [1,4] oxazacyclotricosine-1,7,20,21 (4H, 23H)-tetraone, monohydrate]: the combination to proteins in data set [1] is given as 99%. Also, the “solubility in organic solvents” value (methanol, ethanol, acetone, ethyl acetate, chloroform and diethyl ether) is recorded as “soluble”. The solubility in water entry (water) is “insoluble”. The release of mediators result in data set [2] is reported as “decreases the release of the mediators”. Also, the “excreted in unaltered state through urine” value in data set [3] (human, in vivo) is recorded as “less than 1%”. In addition, in data set [3] (main channel of elimination), the elimination through bile result is “more than 90%”. Further, the Bioavailability in data set [3] (oral, reduced with the presence of food) is given as 4-89%. In addition, the “time to concentration in steady state” value in data set [3] (orally 0.3 mg/Kg/day, liver transplant patients, majority of the cases) is 3 days.
Turning to `C=CCC1C=C(C)CC(C)CC(OC)C2OC(O)(C(=O)C(=O)N3CCCCC3C(=O)OC(C(C)=CC3CCC(O)C(OC)C3)C(C)C(O)CC1=O)C(C)CC2O` (stereo not shown) [13-O-desmethyl tacrolimus], in data set [4], the immunosuppressive effect entry is “neither of which have a measurable immunosuppresive effect”.
Regarding `C=CCC1C=C(C)CC(C)CC(O)C2OC(O)(C(=O)C(=O)N3CCCCC3C(=O)OC(C(C)=CC3CCC(O)C(OC)C3)C(C)C(O)CC1=O)C(C)CC2OC` (stereo not shown) [15-O-desmethyl tacrolimus], the immunosuppressive effect entry in data set [4] is given as “neither of which have a measurable immunosuppresive effect”.
